Source: ChEMBL document CHEMBL1201862, “PubChem BioAssay data set” (2004)
Active and inactive are the calls of the source.

Experiments:
[1] = yeast RAM network inhibitors, dose response, S. cerevisiae (AID 1307); assay type: functional
[2] = molecular target: T1, Induced myeloid leukemia cell differentiation protein Mcl-1 (Homo sapiens, UniProt Q07820); assay type: functional
[3] = molecular target: T2, Zinc finger protein mex-5 (Caenorhabditis elegans, UniProt Q9XUB2); assay: MEX-5/TCR-2 RNA interaction inhibitors, dose response, biochemical, C. elegans, fluorescence polarization (AID 1960)
T2 sequence (Q9XUB2 whole entry): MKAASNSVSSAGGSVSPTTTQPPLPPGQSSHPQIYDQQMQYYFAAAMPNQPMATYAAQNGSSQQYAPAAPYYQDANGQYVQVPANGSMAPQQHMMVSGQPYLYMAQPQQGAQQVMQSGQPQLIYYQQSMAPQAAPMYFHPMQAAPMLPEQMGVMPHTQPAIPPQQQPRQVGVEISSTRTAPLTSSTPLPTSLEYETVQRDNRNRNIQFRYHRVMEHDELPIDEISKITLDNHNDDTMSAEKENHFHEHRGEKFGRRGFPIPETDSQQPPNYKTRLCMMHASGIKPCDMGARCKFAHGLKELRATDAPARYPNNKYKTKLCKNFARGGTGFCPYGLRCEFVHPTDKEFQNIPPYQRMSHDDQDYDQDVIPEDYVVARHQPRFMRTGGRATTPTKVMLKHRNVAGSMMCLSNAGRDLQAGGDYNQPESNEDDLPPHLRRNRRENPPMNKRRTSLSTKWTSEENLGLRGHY

[4] = molecular target: Bcl-2-like protein 1 (Homo sapiens, UniProt Q07817); assay: BCL-XL inhibitors, dose response, selectivity assay for MCL1 inhibitor project, biochemical, fluorescence polarization, 1536-well (AID 2218)
[5] = molecular target: Protein disulfide-isomerase (Homo sapiens, UniProt P07237); assay: PDI inhibitors, insulin aggregation turbidity, dose response, biochemical, absorbance, cherry-picked samples (AID 602350); assay type: functional
[6] = molecular target: T3, Leucine aminopeptidase (Plasmodium falciparum 3D7, UniProt Q8IL11); assay: P. falciparum M17LAP inhibitors, primary screen, biochemical, fluorogenic H-Leu-NHMec substrate, 1536-well (AID 1619); assay type: functional
T3 sequence (Q8IL11 whole entry): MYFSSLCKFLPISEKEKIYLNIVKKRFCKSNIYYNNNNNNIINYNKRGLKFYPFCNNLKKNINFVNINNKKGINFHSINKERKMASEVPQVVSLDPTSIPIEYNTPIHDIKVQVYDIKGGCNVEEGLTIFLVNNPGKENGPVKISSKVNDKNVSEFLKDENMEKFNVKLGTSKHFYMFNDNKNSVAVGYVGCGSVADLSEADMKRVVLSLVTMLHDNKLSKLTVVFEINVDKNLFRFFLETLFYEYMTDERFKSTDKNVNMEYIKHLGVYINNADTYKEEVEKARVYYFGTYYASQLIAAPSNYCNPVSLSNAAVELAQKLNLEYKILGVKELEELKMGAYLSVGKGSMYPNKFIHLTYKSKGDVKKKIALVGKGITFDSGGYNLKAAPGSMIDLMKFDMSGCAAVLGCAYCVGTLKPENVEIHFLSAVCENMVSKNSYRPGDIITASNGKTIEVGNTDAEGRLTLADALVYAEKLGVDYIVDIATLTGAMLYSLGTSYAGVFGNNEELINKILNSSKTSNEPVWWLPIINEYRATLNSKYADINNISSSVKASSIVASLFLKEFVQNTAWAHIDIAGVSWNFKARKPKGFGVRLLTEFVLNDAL

[7] = molecular target: Phospholipase A2 (Homo sapiens, UniProt P04054); assay type: functional;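 note: confirmatory dose-response counterscreen on phospholipase A2, testing hits that came from an ultra-high-throughput screen for ATG4B inhibitors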
[8] = molecular target: T1, Induced myeloid leukemia cell differentiation protein Mcl-1; assay: MCL1-BIM BH3 interaction inhibitors, dose response, biochemical, fluorescence polarization, BIM-BH3 peptide, 1536-well (AID 2217)
[9] = molecular target: Large T antigen (Simian virus 40, UniProt P03070); assay type: functional, Betapolyomavirus macacae;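 note: Confirmatory-stage PubChem screen for compounds that inhibit SV40 T antigen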
[10] = molecular target: T4, SUMO-activating enzyme (Homo sapiens, UniProt Q9UBT2); assay: SUMOylation inhibitor hit validation, confirmation, SUMOylation inhibitor project, biochemical, AlphaScreen (AID 2018); assay type: functional
[11] = molecular target: T5, Cysteine protease ATG4B (Homo sapiens, UniProt Q9Y4P1); assay type: functional;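 note: Fluorescence-based dose-response confirmation assay measuring inhibition of ATG4B activity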
T5 sequence (Q9Y4P1 whole entry): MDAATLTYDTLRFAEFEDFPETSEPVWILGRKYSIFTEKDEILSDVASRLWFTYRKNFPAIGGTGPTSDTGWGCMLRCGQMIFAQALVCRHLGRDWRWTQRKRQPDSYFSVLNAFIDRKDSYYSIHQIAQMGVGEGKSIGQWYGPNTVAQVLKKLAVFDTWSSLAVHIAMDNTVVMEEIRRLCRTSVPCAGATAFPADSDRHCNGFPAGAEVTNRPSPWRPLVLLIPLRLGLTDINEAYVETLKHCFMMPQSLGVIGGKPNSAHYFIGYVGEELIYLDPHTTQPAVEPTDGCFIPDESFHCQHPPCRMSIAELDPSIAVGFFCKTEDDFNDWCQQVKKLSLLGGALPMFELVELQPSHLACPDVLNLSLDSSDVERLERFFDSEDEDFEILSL

[12] = molecular target: T4, SUMO-activating enzyme; assay: inhibitors of in vitro SUMOylation cascade, primary screen, biochemical, HTRF, uHTS (AID 2006); assay type: protein-complex assay
[13] = molecular target: Nonstructural protein 1 (Influenza A virus, UniProt Q194T2); assay type: functional, Influenza A virus (A/California/07/2009(H1N1))
[14] = molecular target: Genome polyprotein (dengue virus type 2, UniProt P29990); assay: Dengue-2 NS5 methyltransferase inhibitors, primary screen, biochemical, confirmation dose response (AID 588689); assay type: functional
[15] = molecular target: DNA (cytosine-5)-methyltransferase 1 (Homo sapiens, UniProt P26358); assay: DNMT1 methyltransferase inhibitors, confirmation, biochemical, fluorescent molecular beacon (AID 602386); assay type: functional
[16] = molecular target: T6, RNA-binding protein pos-1 (Caenorhabditis elegans, UniProt G5EF15); assay: inhibitors of POS-1/mex-3 RNA binding, dose response, biochemical, fluorescence polarization (AID 1964);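 note: purified POS-1 fused to maltose binding protein made in E. coli; potency of compounds blocking POS-1 binding to fluorescent RNA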
T6 sequence (G5EF15 whole entry): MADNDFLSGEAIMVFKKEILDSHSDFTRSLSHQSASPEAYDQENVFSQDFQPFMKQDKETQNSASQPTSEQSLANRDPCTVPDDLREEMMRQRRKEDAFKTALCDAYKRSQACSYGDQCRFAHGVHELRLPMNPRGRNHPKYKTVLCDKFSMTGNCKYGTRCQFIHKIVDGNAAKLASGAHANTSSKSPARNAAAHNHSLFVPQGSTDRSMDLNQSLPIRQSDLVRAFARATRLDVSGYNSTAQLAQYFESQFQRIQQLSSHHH

[17] = Luminescence Cell-Based Dose Response to Identify Activators of 5'UTR Stem-Loop Driven Prion Protein mRNA Translation in H4-C Neuroglioblastoma Cells. [Related pubchem assays: 1829 (Project Summary), 1814 (Primary HTS)]; assay type: functional
[18] = Luminescence Cell-Based Dose Response HTS to Identify Activators of Luciferase Translation or Activity in H4 […] Cells. [Related pubchem assays: 1829 (Project Summary), 1814 (Primary HTS)]; assay type: functional
[19] = Luminescence Cell-Based Dose Confirmation to Identify Activators of 5'UTR Stem-Loop Driven Alpha-Synuclein mRNA Translation in H4 Neuroglioblastoma Cells. [Related pubchem assays: 1829 (Project Summary), 1814 (Primary HTS)]; assay type: functional
[20] = Luminescence Cell-Based Dose Response to Identify Activators of Luciferase Translation or Activity in H4-C Neuroglioblastoma Cells. [Related pubchem assays: 1829 (Project Summary), 1814 (Primary HTS)]; assay type: functional
[21] = test system: BJ; assay: cytotoxicity toward BJ-TERT-LT-ST fibroblasts, dose response, cell-based, RAS-independent, luminescence (AID 1935); assay type: functional; conditions: Homo sapiens;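 note: BJ fibroblasts immortalized with TERT plus LT and ST oncogenes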
[22] = cytotoxicity toward DRD oncogenic fibroblasts, dose response, cell-based, non-viral oncogenic, luminescence (AID 1934); assay type: functional; conditions: Homo sapiens
[23] = Luminescence-based dose response cell-based high throughput screening assay for cytotoxic compounds using the IEC-6 intestinal epithelial cell line. [Related pubchem assays: 1858 (Summary AID.), 1825 (Counterscreen.), 1907 (Confirmation screen.)]; assay type: functional
[24] = test system: BJ; assay: cells; assay type: functional, cell-based; conditions: Homo sapiens
[25] = cytotoxicity in HEK-293T cells, dose response, cytotoxicity control for TCR NF-kB inhibitor project, luminescence, T-cell screen hits (AID 489026); assay type: functional, cell-based;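 note: cells exposed to compound about 14 hours before the viability readout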
[26] = test system: BJ; assay: cytotoxicity toward BJ-TERT fibroblasts, dose response, cell-based, RAS-independent, luminescence (AID 1933); assay type: functional; conditions: Homo sapiens
[27] = inhibitors of intracellular T. cruzi replication, confirmation, NIH3T3 host cells, beta-gal luminescence (AID 2044); assay type: functional, cell-based;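 note: intracellular parasites grown in NIH/3T3 mouse fibroblasts as host cells; luminescent beta-galactosidase reporter signal from transgenic T. cruzi replicating inside host cells; inhibitors lower the luminescence signal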
[28] = cytotoxicity toward NIH3T3 fibroblasts, dose response, counter-screen, cell-based, ATP luminescence, mouse fibroblasts (AID 2010); assay type: functional;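 note: cells exposed to compound for about 90 hours before reading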
[29] = HEK293 cell cytotoxicity, dose response, cytotoxicity control, dry powder samples (AID 720567); assay type: functional, cell-based

T1 sequence (Q07820 whole entry): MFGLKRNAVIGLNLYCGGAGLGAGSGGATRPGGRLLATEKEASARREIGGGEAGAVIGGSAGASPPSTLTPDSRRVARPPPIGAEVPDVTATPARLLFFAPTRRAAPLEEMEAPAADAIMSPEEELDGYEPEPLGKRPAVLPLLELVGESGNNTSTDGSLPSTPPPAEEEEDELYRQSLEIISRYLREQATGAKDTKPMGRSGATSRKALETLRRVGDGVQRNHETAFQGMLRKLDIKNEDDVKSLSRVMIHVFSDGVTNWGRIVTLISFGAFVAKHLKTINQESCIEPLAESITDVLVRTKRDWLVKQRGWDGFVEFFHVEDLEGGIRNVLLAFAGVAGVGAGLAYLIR
T4 sequence (Q9UBE0 whole entry): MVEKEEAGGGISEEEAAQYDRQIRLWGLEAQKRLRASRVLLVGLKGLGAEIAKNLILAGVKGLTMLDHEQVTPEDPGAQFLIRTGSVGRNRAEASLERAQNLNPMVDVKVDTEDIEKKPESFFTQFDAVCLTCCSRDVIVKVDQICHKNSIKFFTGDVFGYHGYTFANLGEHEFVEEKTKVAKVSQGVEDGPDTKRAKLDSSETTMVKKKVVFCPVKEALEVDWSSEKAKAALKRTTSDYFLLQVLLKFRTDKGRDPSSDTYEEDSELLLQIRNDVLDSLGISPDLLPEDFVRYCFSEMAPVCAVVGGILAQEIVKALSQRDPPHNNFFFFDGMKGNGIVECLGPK
T4 sequence (Q9UBT2 whole entry): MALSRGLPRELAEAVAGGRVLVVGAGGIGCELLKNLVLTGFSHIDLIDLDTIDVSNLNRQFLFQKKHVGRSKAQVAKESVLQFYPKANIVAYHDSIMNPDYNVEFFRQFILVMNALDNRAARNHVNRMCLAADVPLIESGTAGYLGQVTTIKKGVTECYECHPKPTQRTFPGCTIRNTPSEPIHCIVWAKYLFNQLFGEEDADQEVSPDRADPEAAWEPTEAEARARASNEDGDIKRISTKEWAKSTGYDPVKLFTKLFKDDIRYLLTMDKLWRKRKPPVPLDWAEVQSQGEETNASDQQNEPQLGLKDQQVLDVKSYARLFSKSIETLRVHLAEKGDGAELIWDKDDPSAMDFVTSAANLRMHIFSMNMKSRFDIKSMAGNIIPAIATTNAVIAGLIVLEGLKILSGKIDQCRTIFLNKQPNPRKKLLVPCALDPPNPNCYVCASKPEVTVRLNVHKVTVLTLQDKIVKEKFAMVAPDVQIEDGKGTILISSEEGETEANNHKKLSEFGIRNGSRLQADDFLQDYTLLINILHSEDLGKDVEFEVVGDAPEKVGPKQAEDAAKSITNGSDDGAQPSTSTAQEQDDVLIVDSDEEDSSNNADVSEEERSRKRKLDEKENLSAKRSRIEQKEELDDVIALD
DNA (cytosine-5)-methyltransferase 1, sequence (P26358 whole entry, the tested form may be a part): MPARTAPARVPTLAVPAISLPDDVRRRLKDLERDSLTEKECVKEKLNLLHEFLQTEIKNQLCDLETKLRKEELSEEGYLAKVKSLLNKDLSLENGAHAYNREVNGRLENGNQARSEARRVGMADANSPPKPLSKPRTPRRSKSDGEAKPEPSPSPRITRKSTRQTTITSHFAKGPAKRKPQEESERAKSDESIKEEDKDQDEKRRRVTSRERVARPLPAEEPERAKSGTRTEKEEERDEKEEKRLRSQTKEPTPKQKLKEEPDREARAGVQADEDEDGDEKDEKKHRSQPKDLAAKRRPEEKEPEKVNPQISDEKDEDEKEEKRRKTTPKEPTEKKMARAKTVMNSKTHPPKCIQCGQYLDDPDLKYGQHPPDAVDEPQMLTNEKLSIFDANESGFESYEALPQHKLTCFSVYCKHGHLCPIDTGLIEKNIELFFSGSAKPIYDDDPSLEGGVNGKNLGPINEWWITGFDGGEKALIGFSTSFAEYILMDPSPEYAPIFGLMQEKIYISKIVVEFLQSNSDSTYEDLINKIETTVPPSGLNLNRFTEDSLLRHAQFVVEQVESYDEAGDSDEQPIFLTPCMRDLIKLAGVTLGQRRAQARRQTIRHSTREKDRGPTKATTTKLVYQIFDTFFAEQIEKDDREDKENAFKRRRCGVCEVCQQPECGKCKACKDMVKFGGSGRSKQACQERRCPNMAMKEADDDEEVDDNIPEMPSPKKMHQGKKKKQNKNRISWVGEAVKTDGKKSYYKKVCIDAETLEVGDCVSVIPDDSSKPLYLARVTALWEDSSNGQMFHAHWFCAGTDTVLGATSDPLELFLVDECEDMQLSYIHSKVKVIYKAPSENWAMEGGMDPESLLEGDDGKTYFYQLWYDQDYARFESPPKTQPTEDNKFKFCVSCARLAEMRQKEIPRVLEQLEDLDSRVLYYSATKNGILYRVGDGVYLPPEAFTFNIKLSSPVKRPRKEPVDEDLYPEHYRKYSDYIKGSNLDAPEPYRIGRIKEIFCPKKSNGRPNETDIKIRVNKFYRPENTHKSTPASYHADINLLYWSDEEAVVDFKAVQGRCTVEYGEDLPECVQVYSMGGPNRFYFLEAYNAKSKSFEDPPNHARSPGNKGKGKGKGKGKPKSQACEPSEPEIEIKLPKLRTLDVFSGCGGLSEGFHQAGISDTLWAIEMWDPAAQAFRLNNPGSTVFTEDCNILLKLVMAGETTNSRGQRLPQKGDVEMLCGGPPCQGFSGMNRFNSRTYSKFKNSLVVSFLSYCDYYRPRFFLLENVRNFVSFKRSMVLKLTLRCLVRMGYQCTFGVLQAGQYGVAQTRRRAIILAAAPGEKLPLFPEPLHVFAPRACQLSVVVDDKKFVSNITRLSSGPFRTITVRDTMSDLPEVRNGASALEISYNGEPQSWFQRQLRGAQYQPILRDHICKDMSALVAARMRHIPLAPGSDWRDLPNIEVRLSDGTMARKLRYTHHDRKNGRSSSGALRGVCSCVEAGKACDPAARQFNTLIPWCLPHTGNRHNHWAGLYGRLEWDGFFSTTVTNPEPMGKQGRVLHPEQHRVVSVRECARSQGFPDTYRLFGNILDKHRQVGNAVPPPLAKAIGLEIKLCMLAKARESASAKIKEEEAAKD
Nonstructural protein 1, sequence (Q194T2 whole entry): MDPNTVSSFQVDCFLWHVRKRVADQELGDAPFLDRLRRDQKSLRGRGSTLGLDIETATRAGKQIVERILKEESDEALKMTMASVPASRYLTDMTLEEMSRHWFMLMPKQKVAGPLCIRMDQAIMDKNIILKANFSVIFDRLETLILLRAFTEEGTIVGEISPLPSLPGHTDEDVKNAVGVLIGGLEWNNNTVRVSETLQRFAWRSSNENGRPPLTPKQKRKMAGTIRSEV
Genome polyprotein, sequence (P29990 2492-3391 limits assumed): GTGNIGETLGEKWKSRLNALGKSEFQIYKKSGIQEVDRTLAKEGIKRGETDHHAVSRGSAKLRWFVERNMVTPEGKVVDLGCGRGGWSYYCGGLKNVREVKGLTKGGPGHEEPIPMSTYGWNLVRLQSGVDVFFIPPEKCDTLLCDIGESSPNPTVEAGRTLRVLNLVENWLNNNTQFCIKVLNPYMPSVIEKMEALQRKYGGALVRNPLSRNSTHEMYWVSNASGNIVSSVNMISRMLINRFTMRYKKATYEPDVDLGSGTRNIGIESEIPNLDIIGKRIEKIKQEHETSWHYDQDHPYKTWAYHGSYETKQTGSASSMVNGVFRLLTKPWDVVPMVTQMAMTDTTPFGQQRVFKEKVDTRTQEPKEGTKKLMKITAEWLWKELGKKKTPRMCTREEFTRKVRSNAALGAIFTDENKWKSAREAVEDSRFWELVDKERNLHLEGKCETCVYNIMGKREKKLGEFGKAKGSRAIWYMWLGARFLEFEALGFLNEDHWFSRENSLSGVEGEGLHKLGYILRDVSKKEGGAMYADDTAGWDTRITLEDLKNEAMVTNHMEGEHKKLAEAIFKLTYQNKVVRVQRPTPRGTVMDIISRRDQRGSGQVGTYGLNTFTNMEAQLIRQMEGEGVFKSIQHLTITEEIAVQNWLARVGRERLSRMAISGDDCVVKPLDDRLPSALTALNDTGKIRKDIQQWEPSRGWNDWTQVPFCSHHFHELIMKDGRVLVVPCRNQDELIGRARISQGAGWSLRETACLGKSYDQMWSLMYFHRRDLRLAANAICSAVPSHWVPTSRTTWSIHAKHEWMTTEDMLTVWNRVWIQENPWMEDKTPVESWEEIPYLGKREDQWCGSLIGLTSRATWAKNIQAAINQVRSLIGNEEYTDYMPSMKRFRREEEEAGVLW
Phospholipase A2, sequence (P04054 whole entry): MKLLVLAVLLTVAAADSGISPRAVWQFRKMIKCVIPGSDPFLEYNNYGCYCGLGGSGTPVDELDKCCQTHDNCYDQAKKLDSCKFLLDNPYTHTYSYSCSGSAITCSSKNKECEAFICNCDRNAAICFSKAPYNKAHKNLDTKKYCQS
Bcl-2-like protein 1, sequence (Q07817 whole entry): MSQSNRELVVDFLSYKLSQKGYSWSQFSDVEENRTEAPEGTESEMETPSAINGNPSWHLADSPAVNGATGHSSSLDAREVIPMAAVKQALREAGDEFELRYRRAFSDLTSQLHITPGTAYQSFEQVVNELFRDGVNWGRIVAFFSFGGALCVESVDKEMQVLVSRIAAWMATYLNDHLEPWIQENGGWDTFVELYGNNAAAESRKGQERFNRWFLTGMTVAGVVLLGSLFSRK
Protein disulfide-isomerase, sequence (P07237 whole entry): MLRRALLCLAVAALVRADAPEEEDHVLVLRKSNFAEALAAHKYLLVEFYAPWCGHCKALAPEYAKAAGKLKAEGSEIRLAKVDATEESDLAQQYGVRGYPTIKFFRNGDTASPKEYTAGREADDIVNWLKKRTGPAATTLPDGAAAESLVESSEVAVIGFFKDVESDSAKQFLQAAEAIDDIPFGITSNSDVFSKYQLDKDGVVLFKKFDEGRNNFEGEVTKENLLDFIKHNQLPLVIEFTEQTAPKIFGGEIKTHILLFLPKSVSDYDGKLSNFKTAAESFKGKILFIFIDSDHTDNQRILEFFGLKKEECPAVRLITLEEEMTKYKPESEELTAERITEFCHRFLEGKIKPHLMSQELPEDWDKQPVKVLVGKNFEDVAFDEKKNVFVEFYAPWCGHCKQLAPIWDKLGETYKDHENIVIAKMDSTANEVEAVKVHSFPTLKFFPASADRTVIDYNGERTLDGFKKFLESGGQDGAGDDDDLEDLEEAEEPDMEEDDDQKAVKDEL

With `CN1/C(=C\C=C2/C(=O)Oc3ccccc3C2=O)C(C)(C)c2ccccc21` the IC50 [1] was 178 µM (active).
In the case of `COc1cccc(NS(=O)(=O)c2ccc3c(c2)C2C=CCC2C(c2ccc(C(=O)O)cc2)N3)c1` (centres undefined), the IC50 [2] is reported as 2.32 µM (active), the EC50 [3] is reported as 12.5 µM (active) and the IC50 [4] is reported as 64.9 µM (not active). For the same compound, the AC50 [5] was 15.8 µM (active), the IC50 [6] was 15.8 µM (active) and the IC50 [7] was 10.6 µM (active). For the same compound, the IC50 [8] was 18.9 µM (not active), the IC50 [9] was > 100 µM (active) and the IC50 [10] was 2.15 µM (active). For the same compound, the IC50 [11] was 10.7 µM (active), the IC50 [12] was 9.5 µM (active) and the IC50 [13] was > 100 µM (active). For the same compound, the IC50 [14] was 67 µM (active), the IC50 [15] was 7.94 µM (active) and the EC50 [16] was 18 µM (inconclusive).
For `O=c1sc(N2CCN(c3ccccc3F)CC2)nc2ccsc12`, the EC50 [17] was 0.309 µM (active), the EC50 [18] was < 0.1 µM (inconclusive) and the EC50 [19] was 0.237 µM (active). For the same compound, the EC50 [20] was 0.349 µM (active).
With `CCn1c2ccccc2c2cc(NC(=O)c3cc(OC)c(OC)c(OC)c3)ccc21` the EC50 [21] was 0.165 µM (inconclusive), the EC50 [22] was 0.284 µM (inconclusive) and the IC50 [23] was 0.534 µM (active). The EC50 [24] was 0.745 µM (inconclusive), the IC50 [25] was > 80 µM (inactive) and the EC50 [26] was 0.184 µM (active). The EC50 [27] was 1 µM (active), the EC50 [28] was 0.121 µM (active) and the AC50 [29] was 25.6 µM (active).
